From patent publication US11844800B2, “Methods and compositions for predicting and preventing relapse of acute lymphoblastic leukemia” (Massachusetts Institute of Technology, priority 2019, dated 2023)

Experiments:
[1] = tested on: BCR-ABL mutant B-cell ALL; assay type: in vivo, mice; conditions: 13 models, n=88 animals
[2] = tested on: B-cell ALL leukemic cells in bone marrow; assay: Bone marrow involvement at MRD in B-cell ALL PDX mice after mono- or combination therapy; assay type: in vivo; conditions: treated for 28 days
Description: Mice are treated with ponatinib alone, ponatinib in combination with QNZ (a TNF-alpha inhibitor), ponatinib in combination with fostamatinib (a proximal pre-BCR pathway inhibitor), ponatinib in combination with ibrutinib (a proximal pre-BCR pathway inhibitor), ponatinib in combination with duvelisib (a distal pre-BCR inhibitor), or ponatinib in combination with losmapimod (a p38 MAPK inhibitor) for 28 days. Bone marrow aspirates are obtained, and leukemic cells are isolated using conventional Ficoll centrifugation and FACS sorting methods. The leukemic cells are counted as bone marrow involvement at MRD, and it is compared to that before treatment.

SMILES	Event free survival (remission/relapse, in words) [1]	bone marrow involvement at MRD [2] [%]
O=C(Nc1ccc(OC(F)(F)Cl)cc1)c1cnc(N2CC[C@@H](O)C2)c(-c2cc[nH]n2)c1 [ABL001, asciminib]	significant earlier relapse	–
Cc1ccc(C(=O)Nc2ccc(CN3CCN(C)CC3)c(C(F)(F)F)c2)cc1C#Cc1cnc2cccnn12 [ponatinib]	–	8
